Source: article PMC4979516, “Quinazoline-based tricyclic compounds that regulate programmed cell death, induce neuronal differentiation, and are curative in animal models for excitotoxicity and hereditary brain disease” (Cell Death Discovery, 2015)

Columns and labels:
[1] = target: T1, 18 kDa translocator protein (TSPO) (Rattus norvegicus, UniProt P16257); assay: TSPO binding, displacement of [3H]PK 11195 in rat kidney membranes
T1 construct: 400 μl of homogenized rat kidney membranes (5 mg of homogenate/ml); from tissue; host or cells: rat kidney (homogenized membranes)
T1 sequence (P16257 whole entry): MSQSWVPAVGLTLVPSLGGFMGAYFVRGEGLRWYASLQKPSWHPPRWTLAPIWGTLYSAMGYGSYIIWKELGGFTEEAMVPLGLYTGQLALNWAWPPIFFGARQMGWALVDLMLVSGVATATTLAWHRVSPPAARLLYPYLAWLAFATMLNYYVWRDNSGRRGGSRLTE
Method: After incubation for 60 min at 4 °C, samples were filtered under vacuum over Whatman GF/C filters and washed three times with 5 ml of 50 mM Tris-HCl buffer, pH 7.4. The filters were incubated in CytoScint (MP Biomedicals) and radioactivity was measured after 12 h with a 1600 CA Tri-Carb liquid scintillation analyzer (Packard). Inhibitory constant (Ki) values were calculated by the equation Ki=IC50/(1+C/Kd), where C=[^3H]

PC12 cells = assay: Collapse of mitochondrial membrane potential (JC-1) in PC12 cells; assay type: cell-based, rat; conditions: PC12, 50 μM MGV-1, 35 mM glutamate
Description: JC-1 was used to assay changes in Δψm, as described previously.[71],[79] Owing to charges distributed along JC-1 molecules, they pass unimpaired (charged) mitochondrial membranes and enter the mitochondrial matrix. There the J-molecules form J-aggregates, which emit at 590 nm (orange–red fluorescence). […] The monomers emit at 527 nm (green fluorescence). A decrease in the red–green fluorescence intensity ratio is an indication for mitochondrial depolarization. As a positive control, the proton ionophore carbonyl cyanide m-chlorophenylhydrazone was used as described previously.[71] Cells were collected and prepared for suspension in 10 μg/ml of JC-1 solution in PBS. After incubation at 37 °C for 30 min in the dark, the cells were washed with 0.5 ml of PBS, and the cell suspensions were analyzed with the BD FACSCalibur flow cytometer.

[2] = tested on: PC12 cells strain #1 (polygonal cells); assay: Neuronal differentiation (neurite sprouting) of PC12 strain #1; assay type: cell-based, rat; conditions: strain #1, only polygonal cells
[3] = tested on: kainic acid-injected Sprague-Dawley rats; assay: Systemic kainic acid injection model in rats (seizures, hyper reactivity, hippocampal histology); assay type: in vivo; conditions: rat
Description: Epileptic seizures in rats, including gnawing, wet dog shakes, head bobbing, forepaw abduction, rearing, forelimb clonus, loss of balance, and convulsions were induced by systemic injections of kainic acid and scored as previously described.[48],[83–85] Such induced seizures typically are accompanied by neurodegeneration in the hippocampus, amydala, pyriform cortex, followed by edema in the diencephalon, and mesencephalon.[43],[44],[86] To test the effects of pretreatment with MGV-1 on the consequences of kainic acid injections, first of all MGV-1 was dissolved in vehicle (10% (v/v) dimethylsulfoxide (DMSO) in sesame oil). After that, 8 weeks old rats received an intraperitoneal injection of 15, 7.5, or 3.75 mg of MGV-1 (per kg/rat), according to previous methods.[48] […] After the kainic acid injections, the rats were monitored continuously for 2 h for the development of epileptic symptoms.[48],[86]
For MGV-1 post-treatment, rats first received a KA injection (9 mg/kg/rat) and then a single injection of 15 mg/kg MGV-1 2 h later, that is, after the typical period for full blown seizure activity. In a single experiment, each experimental group and the vehicle control group consisted of nine rats. Then, for 1 week, daily injections of MGV-1 were given, and the rats were tested daily for hyper reactivity in response to handling.[47] Histological assays were applied 2 weeks after kainic acid injections.
For histological assays, rats that had developed seizures and had subsequently received treatment or control vehicle were sedated with ketamine (75 mg/kg) and xylazine (10 mg/kg) injections until no reflexes were seen and were then perfused with 4% of paraformaldehyde. […] The brains were taken and then stored in paraformaldehyde 4% solution at 4 °C. After 48 h, the solution was changed to 20% sucrose solution at 4 °C. Brains of rats that were post treated with MGV-1 were prepared in the same way. After the brains had sunk they were embedded in optimal cutting temperature compound, frozen with liquid nitrogen, and stored at −70 °C. The brains were cut at −18 °C on a Cryostat Leica (Wetzlar, Germany) CM3050S microtome in 40 μm sections from Bregma −2.8 to −5.8. The sections were kept in PBS without Ca^2+ and Mg^2+ with 0.5% sodium azide at 4 °C. Sections were incubated with primary antibodies against anti-NeuN to label neurons.[87] The appropriate secondary antibodies were applied with VECTASTAIN Peroxidase ABC Kits (Vector Laboratories, Burlingame, CA, USA) based on avidin–biotin, according to the manufacturer’s instructions. The labeled, floating sections were mounted on microscope slides and coverslipped applying glycerol vinyl alcohol aqueous mounting solution. For observations and micrographs, a BH2 Olympus (Tokyo, Japan) upright microscope outfitted with a Nikon (Tokyo, Japan) DSFi1 digital camera was used.

R6-2 mice = assay: R6-2 transgenic mouse model for Huntington disease (lifespan, behavior); assay type: in vivo; conditions: pilot studies, s.c. daily 5 days per week; MGV-1 15 mg/kg, PK 11195 15 mg/kg, MGV-2 15 and 7.5 mg/kg
Description: Huntington disease in humans is a hereditary disease including neurodegeneration leading to degradation in motor performance, continual involuntary movements, tremors, cardiovascular and respiratory impairments, and finally leading to death of the patients having the disease.[88] For this study, R6-2 mice (~120 CAG repeats B6CBA-Tg(HDexon1)62 Gpb/3J) mice were used as a transgenic mouse model for Huntington disease. For this purpose, mice obtained from the Jackson Laboratory were bred. In particular, males hemizygous for Tg(HDexon1)62 Gpb, and females from the wild-type background strain B6CBAF1/J, were bred according to the protocol of Jackson Laboratory.
For tests of drug efficacy, male offspring hemizygous for Tg(HDexon1)62 Gpb were used to determine drug effect on lifespan, motor activity, and general well-being of the animals. Drug treatment for this study consisted of daily (5 continuous days per week) subcutaneous injections in the neck area of mice with 20 μl of: the drug vehicle DMSO (vehicle control), 2-Cl-MGV-1(7.5 mg/kg) and 2-Cl-MGV-2 (7.5 mg/kg). […] Quantities were used according to previous studies regarding TSPO ligands[48] and adapted depending on the findings in the course of the pilot studies. The treatments were given until the animals died a natural death. Behavioral experiments included distance covered in an open field apparatus,[89] freezing,[89] and balance on a rotor-rod.[90] Spontaneous tremor activity was evaluated using a Hamilton–Kinder sensor in a soundproof ventilated apparatus (Kinder Scientific). The assays for locomotor activity, tremors, and body weight were performed on a weekly basis, together with evaluation of the well-being of the mice. Finally, the day of death was noted. As lifespan data were most pronounced, these are presented in the present description of the results. No adverse effects of any of the drug treatments were noted, neither for specific tests, nor for general observations. Importantly, DMSO had no effect by itself as compared with naive mice or saline-injected mice with various behavioral assays.[20]

## CN(C)C(=O)Oc1nc(-c2ccccc2)nc2ccccc12 [MGV-1, 2-phenylquinazolin-4-yl dimethylcarbamate]
[1]
  Ki: 825 ± 315 nM
PC12 cells
  Enhancement of the incidence of collapse of the ΔΨm: threefold
[2]
  Differentiation of PC12 strain #1 by the agent by itself: can be differentiated by MGV-1 by itself
[3]; 15 and 7.5 mg/kg MGV-1 i.p. 2 h before kainic acid 9 mg/kg
  Induction of seizures by kainic acid: reduction of seizure incidence by half
[3]; MGV-1 15 mg/kg 2 h after kainic acid, then daily for 6 days
  Hyper reactivity in response to handling, post-treatment: restores normal response to handling
[3]; MGV-1 15 mg/kg 2 h after kainic acid, then daily for a week
  Damage in hippocampal area CA1 (NeuN labeling), post-treatment: attenuated damage to area CA1, but less so than MGV-1 pretreatment
[3]; MGV-1 2 h before kainic acid, week after injection
  Hyper reactivity in response to handling, pretreatment: attenuates the incidence of the hyper reactivity
[3]; MGV-1 i.p. before kainic acid 9 mg/kg, histology 2 weeks later
  Damage in hippocampal area CA1 (NeuN labeling), pretreatment: well attenuated
R6-2 mice
  Effect on behavior and lifespan of R6-2 mice: did not appear to have an effect
